Experimental data published in ChEMBL document CHEMBL1141014, “Design and synthesis of a bis(cycloisodityrosine) analogue of RA-VII, an antitumor bicyclic hexapeptide” (Bioorg Med Chem Lett, 2008).
Converted amounts (≈) assume the structure as drawn.

Tested on: P388
Assay: Cytotoxicity against mouse P388 cells
Type: functional, cell-based

Structure (SMILES) | IC50
COc1ccc(C[C@H]2C(=O)N[C@@H](C)C(=O)N(C)[C@H]3Cc4ccc(cc4)Oc4cc(ccc4OC)C[C@@H](C(=O)N[C@H](C)C(=O)N[C@@H](C)C(=O)N2C)N(C)C3=O)cc1 | 0.0015 µg/mL (≈ 0.00195 µM)
COc1ccc2cc1Oc1ccc(cc1)C[C@@H]1NC(=O)[C@@H](C)NC(=O)[C@@H]3Cc4ccc(OC)c(c4)Oc4ccc(cc4)C[C@@H](C(=O)N3C)N(C)C(=O)[C@H](C)NC(=O)[C@H](C2)NC1=O | 7.5 µg/mL (≈ 8.86 µM)
